Reference: article PMC12670405, “Second-Generation AURKA-Targeting PROTACs: Structural Optimization toward in Vivo Degradation in Neuroblastoma” (Journal of Medicinal Chemistry, 2025)

Experiments:
Assay in all cases: LC-MS/MS proteome profiling
Assay type in all cases: cell-based, Homo sapiens
Parameters in all cases: key to Significant (24h SK5527vs24h DMSO) FDR0 05: +: Statistical significance for differential regulation was set to a false discovery rate (FDR) of < 0.05 and |log2FC| = 2
[1] = tested on: PLK1
Experimental: (§1) IMR-32 cells were seeded in T-25 flasks at a density of 1.7 million cells/flask and treated the next day with DMSO (negative control), SK5527 (500 nM) or MK-5108 (500 nM) for 3 or 24 h (data for MK-5108 not discussed in this manuscript). Cell pellets were harvested at the respective time points, lysed, and the concentration of the obtained protein lysates measured as previously described. Details on further sample preparation, LC–MS/MS, and data analysis can be found in the Supporting Information. The LC–MS/MS proteomics data have been deposited to the ProteomeXchange Consortium via the PRIDE partner repository with the data set identifier PXD061539.
(§2) Supplementary Methods 1 – LC-MS/MS proteomics
(§3) From each sample, 100 µg of protein was isolated, the volumes were equalized with water and SDS and TEAB were added to a final concentration of 5% and 50 mM, respectively. Proteins were reduced and alkylated by addition of 10 mM Tris(2-carboxyethyl)phosphine hydrochloride and 40 mM chloroacetamide and incubation for 30 minutes at 25°C in the dark. Phosphoric acid was added to a final concentration of 1.2%, and samples were subsequently diluted 7-fold with binding buffer containing 90% methanol in 100 mM TEAB, pH 7.55. The samples were loaded on the 96-well S-Trap™ plate (Protifi), placed on top of a deepwell plate, and centrifuged for 2 min at 1,500 x g at RT. After protein binding, the S-trap™ plate was washed three times by adding 200 µl binding buffer and centrifugation for 2 min at 1,500 x g at RT. A new deepwell receiver plate was placed below the 96-well S-Trap™ plate and 50 mM TEAB containing trypsin (1/100, w/w) was added for digestion overnight at 37°C.
(§4) Using centrifugation for 2 min at 1,500 x g, peptides were eluted in three steps, first with 80 µl 50 mM TEAB, then with 80 µl 0.2% formic acid (FA) in water and finally with 80 µl 0.2% FA in water/acetonitrile (ACN) (50/50, v/v). Eluted peptides were dried completely by vacuum centrifugation.
(§5) Peptides were re-dissolved in 20 µl loading solvent A (0.1% trifluoroacetic acid in water/acetonitrile (ACN) (99.5:0.5, v/v)) of which 2 µl of sample was injected for LC-MS/MS analysis on an Ultimate 3000 ProFlow nanoLC system in-line connected to a Orbitrap Exploris 240 mass spectrometer (Thermo) equipped with pneu-Nimbus dual ion source (Phoenix S&T). Trapping was performed at 20 μl/min for 2 min in loading solvent A on a PepMap™ Neo Trap column (Thermo scientific, 300 μm internal diameter (I.D.), 5 μm beads). The peptides were separated on a 250 mm Odyssey Ultimate, 1.7µm C18, 75 µm inner diameter (Ionopticks) kept at a constant temperature of 45°C. Peptides were eluted by a gradient reaching 26,4 % MS solvent B (0.1% FA in acetonitrile) after 80 min, 44% MS solvent B at 95 min, 56% MS solvent B at 100min followed by a 5-minutes wash at 56% MS solvent B and re-equilibration with MS solvent A (0.1% FA in water). The flow rate was set to 250 nl/min. The mass spectrometer was operated in data-independent mode, automatically switching between MS and MS/MS acquisition. Full-scan MS spectra ranging from 375-1500 m/z with a normalized target value of 300%, a maximum fill time of 25 ms and a resolution at of 60,000 were followed by 30 quadrupole isolations with a precursor isolation width of 10 m/z for HCD fragmentation at an NCE of 30% after filling the trap at a normalized target value of 2000% for maximum injection time of 45 ms. MS2 spectra were acquired at a resolution of 15,000 with a scan range of 200-1800 m/z in the Orbitrap analyser without multiplexing. The isolation intervals were set from 400 – 900 m/z with a width of 10 m/z using window placement optimization. The polydimethylcyclosiloxane background ion at 445.120028 Da was used for internal calibration (lock mass) and QCloud has been used to control instrument longitudinal performance during the project.
(§6) Analysis of the mass spectrometry data was performed in DiaNN (version 1.9). Precursor false discovery rate was […]
(§7) set at 1%. […]

[2] = tested on: CKAP2
Experimental: as §1, §2, §3, §4, §5, §6, §7

[3] = tested on: ZNF660
Experimental: as §1, §2, §3, §4, §5, §6, §7

Compound: Cc1cc(Nc2ccc(F)c(CC3(C(=O)N4CCC(F)(CN5CCN(c6ccc(N7CCC(=O)NC7=O)cn6)CC5)CC4)CCN(Cc4cccc(Cl)c4F)CC3)n2)n[nH]1 [SK5527]
- logFC (3h SK5527vs3h DMSO) ([1]; IMR-32, 3h): 0.31
- Significant (24h SK5527vs24h DMSO) FDR0 05 ([1]; IMR-32, 24h): +
- logFC (24h SK5527vs24h DMSO) ([1]; IMR-32, 24h): 2.19
- logFC PLK1 ([1]; SK5527 vs DMSO (24h)): 2.19
- logFC (3h SK5527vs3h DMSO) ([2]; IMR-32, 3h): 0.32
- Significant (24h SK5527vs24h DMSO) FDR0 05 ([2]; IMR-32, 24h): +
- logFC (24h SK5527vs24h DMSO) ([2]; IMR-32, 24h): 2.1
- logFC CKAP2 ([2]; SK5527 vs DMSO (24h)): 2.1
- logFC (3h SK5527vs3h DMSO) ([3]; IMR-32, 3h): -0.15
- Significant (24h SK5527vs24h DMSO) FDR0 05 ([3]; IMR-32, 24h): +
- logFC (24h SK5527vs24h DMSO) ([3]; IMR-32, 24h): -2.02
- logFC ZNF660 ([3]; SK5527 vs DMSO (24h)): -2.02
